Values quoted from earlier work in publication PMC10299363 (International Journal of Molecular Sciences, 2023).

Columns and labels:
chemically induced PDACs = conditions: subcutaneous injection, rats
From the text: The galaninergic system is also involved in tumorigenesis, the invasion/migration of tumor cells and angiogenesis, and has been correlated with the tumor stage, proliferation, metastasis, and recurrence rate. […] The inactivation of GAL2R by promoter hypermethylation decreased disease-free survival. GAL2R strongly exerted anti-tumor activity via two important mechanisms: (1) tumor cell cycle arrest mediated via the extracellular-regulated protein kinase-1/2 (ERK1/2)-dependent effects on the cyc ...

head and neck cancer = conditions: via activation of PBMCs

Substance	number of chemically induced PDACs (chemically induced PDACs)	effect on insulin secretion (insulin secretion)	effect in head and neck cancer (head and neck cancer)	binding to GAL2R (GAL2R)	binding to GAL3R (GAL3R)	breakdown in vivo
galanin: 30 amino acid peptide that stimulates three subtype receptors (GAL1–3R)	reduced the number of chemically induced PDACs	strong inhibitory effects toward insulin secretion	pro-tumor effects	binds	binds	–
linear angiotensin: linear angiotensin (ref 33: radioiodinated angiotensin II) (DRVYIHPF; Angiotensin-2; UniProt P01019 25-32, looked up)	–	–	–	–	–	broken down within a minute
